Species on record: Rattus norvegicus
Assay: Open TG-GATES - Regimen: Single
Type: toxicity, organism-based, Sprague-Dawley
Design: regimen Single, gender Male, age 6 weeks
Settings: in vivo, po, 100 mg/kg, route gavage, dose level Low; for APTT / Bas / Eos / Fbg / Hb / Ht / Lym / MCH / MCHC / MCV / Mono / Neu / PT / Plat / RBC / Ret / WBC: tissue Blood; for KIDNEY_L / KIDNEY_R / KIDNEY_TOTAL: tissue Kidney; for LIVER: tissue Liver; for A/G / ALP / ALT / AST / BUN / CRE / Ca / Cl / DBIL / GLC / IP / K / LDH / Na / PL / RALB / TBIL / TC / TG / TP / gamma-GTP: tissue Plasma

`O=C(O)c1cc(/N=N/c2ccc(S(=O)(=O)Nc3ccccn3)cc2)ccc1O` [SULFASALAZINE] was tested, and the TERMINAL_BW (3 h) was 211 g, the APTT (3 h) was 19.2 s and the Bas (3 h) was 0%. For the same compound, the Eos (3 h) was 1%, the Fbg (3 h) was 216.6 mg/dL and the Hb (3 h) was 13 g/dL. For the same compound, the Ht (3 h) was 38.4%, the Lym (3 h) was 77.2% and the MCH (3 h) was 21.5 pg. It also gave an MCHC (3 h) of 33.9%, an MCV (3 h) of 63.4 fL and a Mono (3 h) of 2.4%. For the same compound, the Neu (3 h) was 18.6%, the PT (3 h) was 12.5 s and the Plat (3 h) was 129.8 x10_4/uL. The RBC (3 h) was 605.4 x10_4/ul, the Ret (3 h) was 7.1% and the WBC (3 h) was 92.9 x10_2/uL. The KIDNEY_L (3 h) was 1 g, the KIDNEY_R (3 h) was 0.9 g and the KIDNEY_TOTAL (3 h) was 1.9 g. The LIVER (3 h) was 10.2 g, the A/G (3 h) was 1.6 and the ALP (3 h) was 984.8 IU/L. The ALT (3 h) was 37.4 IU/L, the AST (3 h) was 69.4 IU/L and the BUN (3 h) was 11 mg/dL. For the same compound, the CRE (3 h) was 0.4 mg/dL, the Ca (3 h) was 10.6 mg/dL and the Cl (3 h) was 102.2 meq/L. It also gave a DBIL (3 h) of 0.068 mg/dL, a GLC (3 h) of 201.8 mg/dL and an IP (3 h) of 9.5 mg/dL. For the same compound, the K (3 h) was 3.7 meq/L, the LDH (3 h) was 166.6 IU/L and the Na (3 h) was 140.8 meq/L. It also gave a PL (3 h) of 148 mg/dL, an RALB (3 h) of 3.3 g/dL and a TBIL (3 h) of 0.1 mg/dL. It also gave a TC (3 h) of 80 mg/dL, a TG (3 h) of 59.4 mg/dL and a TP (3 h) of 5.4 g/dL. For the same compound, the gamma-GTP (3 h) was 1.2 IU/L, the TERMINAL_BW (6 h) was 210.8 g and the APTT (6 h) was 19 s. It also gave a Bas (6 h) of 0%, an Eos (6 h) of 1% and a Fbg (6 h) of 218.6 mg/dL. For the same compound, the Hb (6 h) was 13.2 g/dL, the Ht (6 h) was 38.5% and the Lym (6 h) was 73.6%. The MCH (6 h) was 21.9 pg, the MCHC (6 h) was 34.3% and the MCV (6 h) was 63.9 fL. It also gave a Mono (6 h) of 3%, a Neu (6 h) of 21.2% and a PT (6 h) of 12.7 s. It also gave a Plat (6 h) of 111 x10_4/uL, an RBC (6 h) of 603.2 x10_4/ul and a Ret (6 h) of 7.2%. It also gave a WBC (6 h) of 89.7 x10_2/uL, a KIDNEY_L (6 h) of 1 g and a KIDNEY_R (6 h) of 1 g. It also gave a KIDNEY_TOTAL (6 h) of 2 g, an LIVER (6 h) of 9.7 g and an A/G (6 h) of 1.6. The ALP (6 h) was 986.4 IU/L, the ALT (6 h) was 35.8 IU/L and the AST (6 h) was 68.4 IU/L. The BUN (6 h) was 10.2 mg/dL, the CRE (6 h) was 0.4 mg/dL and the Ca (6 h) was 10.6 mg/dL. It also gave a Cl (6 h) of 101.8 meq/L, a DBIL (6 h) of 0.066 mg/dL and a GLC (6 h) of 193.6 mg/dL. For the same compound, the IP (6 h) was 9.7 mg/dL, the K (6 h) was 3.9 meq/L and the LDH (6 h) was 198.6 IU/L. The Na (6 h) was 140.2 meq/L, the PL (6 h) was 148 mg/dL and the RALB (6 h) was 3.3 g/dL. For the same compound, the TBIL (6 h) was 0.1 mg/dL, the TC (6 h) was 76.6 mg/dL and the TG (6 h) was 61.2 mg/dL. The TP (6 h) was 5.4 g/dL, the gamma-GTP (6 h) was 1.6 IU/L and the TERMINAL_BW (9 h) was 204.7 g. For the same compound, the APTT (9 h) was 19.3 s, the Bas (9 h) was 0% and the Eos (9 h) was 1%. It also gave a Fbg (9 h) of 225.8 mg/dL, a Hb (9 h) of 13.2 g/dL and a Ht (9 h) of 38.8%. The Lym (9 h) was 82.4%, the MCH (9 h) was 21.4 pg and the MCHC (9 h) was 34%. The MCV (9 h) was 63 fL, the Mono (9 h) was 3.4% and the Neu (9 h) was 12.4%. The PT (9 h) was 12.8 s, the Plat (9 h) was 113 x10_4/uL and the RBC (9 h) was 616.6 x10_4/ul. For the same compound, the Ret (9 h) was 6.7%, the WBC (9 h) was 76.6 x10_2/uL and the KIDNEY_L (9 h) was 1 g. It also gave a KIDNEY_R (9 h) of 1 g, a KIDNEY_TOTAL (9 h) of 2 g and an LIVER (9 h) of 8.7 g. The A/G (9 h) was 1.6, the ALP (9 h) was 932.8 IU/L and the ALT (9 h) was 35.4 IU/L. It also gave an AST (9 h) of 63.8 IU/L, a BUN (9 h) of 9.4 mg/dL and a CRE (9 h) of 0.3 mg/dL. It also gave a Ca (9 h) of 10.6 mg/dL, a Cl (9 h) of 102.2 meq/L and a DBIL (9 h) of 0.068 mg/dL. It also gave a GLC (9 h) of 194.2 mg/dL, an IP (9 h) of 10.2 mg/dL and a K (9 h) of 3.8 meq/L. It also gave an LDH (9 h) of 198.8 IU/L, a Na (9 h) of 139.8 meq/L and a PL (9 h) of 145.4 mg/dL. For the same compound, the RALB (9 h) was 3.3 g/dL, the TBIL (9 h) was 0.1 mg/dL and the TC (9 h) was 83 mg/dL. It also gave a TG (9 h) of 41.6 mg/dL, a TP (9 h) of 5.5 g/dL and a gamma-GTP (9 h) of 1.2 IU/L. For the same compound, the TERMINAL_BW (24 h) was 221.5 g, the APTT (24 h) was 17.9 s and the Bas (24 h) was 0%. The Eos (24 h) was 1%, the Fbg (24 h) was 234.6 mg/dL and the Hb (24 h) was 13.2 g/dL. The Ht (24 h) was 38.5%, the Lym (24 h) was 81% and the MCH (24 h) was 21.2 pg. For the same compound, the MCHC (24 h) was 34.4%, the MCV (24 h) was 61.8 fL and the Mono (24 h) was 2.8%. For the same compound, the Neu (24 h) was 13.8%, the PT (24 h) was 12.5 s and the Plat (24 h) was 123 x10_4/uL. It also gave an RBC (24 h) of 624 x10_4/ul, a Ret (24 h) of 6.3% and a WBC (24 h) of 86.3 x10_2/uL. It also gave a KIDNEY_L (24 h) of 1 g, a KIDNEY_R (24 h) of 1 g and a KIDNEY_TOTAL (24 h) of 2 g. It also gave an LIVER (24 h) of 10.5 g, an A/G (24 h) of 1.6 and an ALP (24 h) of 1020.4 IU/L. For the same compound, the ALT (24 h) was 40.4 IU/L, the AST (24 h) was 64.6 IU/L and the BUN (24 h) was 15.2 mg/dL. The CRE (24 h) was 0.4 mg/dL, the Ca (24 h) was 10.8 mg/dL and the Cl (24 h) was 101.4 meq/L. The DBIL (24 h) was 0.092 mg/dL, the GLC (24 h) was 184 mg/dL and the IP (24 h) was 7.7 mg/dL. The K (24 h) was 4.1 meq/L, the LDH (24 h) was 213 IU/L and the Na (24 h) was 139.8 meq/L. The PL (24 h) was 158.2 mg/dL, the RALB (24 h) was 3.5 g/dL and the TBIL (24 h) was 0.1 mg/dL. It also gave a TC (24 h) of 79.6 mg/dL, a TG (24 h) of 88.8 mg/dL and a TP (24 h) of 5.7 g/dL. For the same compound, the gamma-GTP (24 h) was 1.6 IU/L.
